# Measurements published in US7781465B2, “Therapeutic oxazolidinones and thiazolidinones” (Allergan, Inc., priority 2007, dated 2010).
# Legend:
# EP4 [1] = molecular target: T1, EP4 (Homo sapiens, UniProt P35408); assay: EP4 binding (Ki)
# Text: (§1) U.S. Patent Application Publication No. 20070129552, incorporated by reference herein, describes the methods used to obtain the in vitro data in the table below.
# hEP3A = molecular target: T2, hEP3A (Homo sapiens, UniProt P43115); assay: Other receptors functional assay, hEP3A; format: cell-based
# T2 sequence (P43115 1-390): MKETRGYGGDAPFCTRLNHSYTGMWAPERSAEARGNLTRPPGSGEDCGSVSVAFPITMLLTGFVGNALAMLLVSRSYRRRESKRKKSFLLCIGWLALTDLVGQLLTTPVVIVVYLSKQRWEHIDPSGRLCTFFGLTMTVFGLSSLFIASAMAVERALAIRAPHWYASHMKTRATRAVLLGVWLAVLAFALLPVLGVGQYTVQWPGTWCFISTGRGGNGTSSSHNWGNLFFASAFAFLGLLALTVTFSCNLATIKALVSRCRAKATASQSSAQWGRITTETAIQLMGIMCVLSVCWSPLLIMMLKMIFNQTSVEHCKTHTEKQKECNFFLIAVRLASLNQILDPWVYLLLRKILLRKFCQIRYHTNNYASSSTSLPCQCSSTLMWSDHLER
# Text: as §1
# hDP = molecular target: T3, hDP (Homo sapiens, UniProt Q13258); assay: Other receptors functional assay, hDP; format: cell-based
# T3 sequence (Q13258 1-359): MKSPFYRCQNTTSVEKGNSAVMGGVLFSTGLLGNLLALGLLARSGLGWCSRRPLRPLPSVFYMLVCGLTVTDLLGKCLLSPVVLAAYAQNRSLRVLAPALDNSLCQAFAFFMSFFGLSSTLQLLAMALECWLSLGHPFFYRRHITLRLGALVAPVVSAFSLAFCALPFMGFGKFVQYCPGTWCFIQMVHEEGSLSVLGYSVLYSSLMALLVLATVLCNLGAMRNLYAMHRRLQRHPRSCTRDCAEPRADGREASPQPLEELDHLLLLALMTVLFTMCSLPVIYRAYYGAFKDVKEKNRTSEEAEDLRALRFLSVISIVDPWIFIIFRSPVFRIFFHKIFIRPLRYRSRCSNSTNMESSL
# Text: as §1
# EP2 [2] = molecular target: T4, EP2 (Homo sapiens, UniProt P43116); assay: EP2 binding (Ki)
# Text: as §1
# EP2 [3] = molecular target: T4, EP2; assay: EP2 flipr functional assay; format: cell-based
# Text: as §1
# EP4 [4] = molecular target: T1, EP4; assay: EP4 flipr functional assay; format: cell-based
# Text: as §1
# normotensive dogs [5] = assay: Intraocular pressure in normotensive dogs; format: in vivo, dog; conditions: 0.003%, once daily for 5 days, at 54 h
# Procedure: (§2) U.S. Pat. No. 7,183,324 describes the methods used to obtain the in vitro results presented below.
# (§3) Isopropyl 5-(3-((R)-3-(4-((S)-1-hydroxyhexyl)phenyl)-4-oxooxazolidin-2-yl)propyl)thiophene-2-carboxylate (12j) was tested in normotensive dogs at 0.003%, dosing once daily for 5 days. The maximum intraocular pressure (IOP) decrease from baseline was 5.4 mmHg (36%) at 54 h; the maximum ocular surface hyperemia (OSH) score was 1.75 at 50 h.
# normotensive dogs [6] = assay: Ocular surface hyperemia in normotensive dogs; format: in vivo, dog; conditions: 0.003%, once daily for 5 days, at 50 h
# Procedure: as §2, §3
# T4 sequence (P43116 whole entry): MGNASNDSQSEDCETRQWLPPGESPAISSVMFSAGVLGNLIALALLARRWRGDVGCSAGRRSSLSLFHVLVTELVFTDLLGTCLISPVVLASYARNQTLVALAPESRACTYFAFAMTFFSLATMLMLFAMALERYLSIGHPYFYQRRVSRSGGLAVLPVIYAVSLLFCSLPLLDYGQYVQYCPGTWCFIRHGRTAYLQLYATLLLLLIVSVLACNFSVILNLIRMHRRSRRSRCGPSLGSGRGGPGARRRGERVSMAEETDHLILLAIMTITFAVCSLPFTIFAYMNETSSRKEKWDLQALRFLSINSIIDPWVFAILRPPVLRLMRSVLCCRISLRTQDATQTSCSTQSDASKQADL
# T1 sequence (P35408 whole entry): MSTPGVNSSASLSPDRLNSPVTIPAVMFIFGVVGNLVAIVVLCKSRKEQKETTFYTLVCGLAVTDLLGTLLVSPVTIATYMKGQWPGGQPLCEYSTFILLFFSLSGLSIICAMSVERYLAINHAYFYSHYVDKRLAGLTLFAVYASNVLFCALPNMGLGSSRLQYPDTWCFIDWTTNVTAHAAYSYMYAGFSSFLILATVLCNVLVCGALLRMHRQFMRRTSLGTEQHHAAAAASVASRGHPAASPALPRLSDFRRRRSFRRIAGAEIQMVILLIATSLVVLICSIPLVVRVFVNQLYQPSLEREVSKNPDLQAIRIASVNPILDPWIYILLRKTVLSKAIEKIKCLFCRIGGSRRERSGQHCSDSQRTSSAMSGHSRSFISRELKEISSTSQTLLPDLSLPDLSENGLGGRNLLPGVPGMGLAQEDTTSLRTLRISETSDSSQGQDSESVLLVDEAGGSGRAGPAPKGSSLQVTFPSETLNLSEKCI
Structure (SMILES),Ki (EP4 [1]) [nM],EC50 (hEP3A) [nM],EC50 (hDP) [nM],Ki (EP2 [2]) [nM],EC50 (EP2 [3]) [nM],EC50 (EP4 [4]) [nM],maximum ocular surface hyperemia (OSH) score (normotensive dogs [6]),maximum intraocular pressure (IOP) decrease from baseline (normotensive dogs [5]) [mmHg],"maximum intraocular pressure (IOP) decrease from baseline, percent (normotensive dogs [5]) [%]"
"CCCCCC(O)c1ccc(N2C(=O)COC2CCCc2ccc(C(=O)O)s2)cc1 (stereo not drawn) [Example 2, 5-(3-(3-(4-(1-hydroxyhexyl)phenyl)-4-oxo-oxazolidin-2-yl)propyl)thiophene-2-carboxylic acid]",> 10000,11,213,14,8,–,–,–,–
"CCCCC[C@H](O)c1ccc(N2C(=O)CO[C@@H]2CCCc2ccc(C(=O)OC(C)C)s2)cc1 [Example 12j, Isopropyl 5-(3-((R)-3-(4-((S)-1-hydroxyhexyl)phenyl)-4-oxooxazolidin-2-yl)propyl)thiophene-2-carboxylate]",–,–,–,–,–,–,1.75,5.4,36
"CCCCC[C@H](O)c1ccc(N2C(=O)CO[C@@H]2CCCc2ccc(C(=O)O)s2)cc1 (single isomer, unassigned) [Example 4]",> 10000,4,73,7,1.2,–,–,–,–

# Second part, led by results:
Ki (EP4 [1]) [nM],EC50 (hEP3A) [nM],EC50 (hDP) [nM],Ki (EP2 [2]) [nM],EC50 (EP2 [3]) [nM],EC50 (EP4 [4]) [nM],maximum ocular surface hyperemia (OSH) score (normotensive dogs [6]),Structure (SMILES),maximum intraocular pressure (IOP) decrease from baseline (normotensive dogs [5]) [mmHg],"maximum intraocular pressure (IOP) decrease from baseline, percent (normotensive dogs [5]) [%]"
2130,237,656,3,37,12600,–,"CCCCCCc1ccc(N2C(=O)COC2CCCc2ccc(C(=O)O)s2)cc1 (stereo not drawn) [Example 8, 5-(3-(3-(4-hexylphenyl)-4-oxooxazolidin-2-yl)propyl)thiophene-2-carboxylic acid]",–,–
> 10000,268,1970,90,82,–,–,"CCCCC[C@H](O)c1ccc(N2C(=O)CO[C@H]2CCCc2ccc(C(=O)O)s2)cc1 (single isomer, unassigned) [Example 3]",–,–
1460,8320,–,17500,4400,> 10000,–,"CCCCCC(O)c1ccc(N2C(=O)CSC2CCCc2ccc(C(=O)O)s2)cc1 (stereo not drawn) [Example 1, 5-(3-(3-(4-(1-hydroxyhexyl)phenyl)-4-oxo-thiazolidin-2-yl)propyl)thiophene-2-carboxylic acid]",–,–
> 10000,–,> 10000,680,3080,–,–,"O=C(O)c1ccc(CCCC2OCC(=O)N2c2ccccc2)s1 (stereo not drawn) [Example 9, 5-(3-(4-oxo-3-phenyloxazolidin-2-yl)propyl)thiophene-2-carboxylic acid]",–,–
